{
  "source": "patent EP2982983B1",
  "about": "“METHOD FOR DRUG SUSCEPTIBILITY TESTING OF MYCOBACTERIUM TUBERCULOSIS BY ELECTRON PARAMAGNETIC RESONANCE” (priority 2014, dated 2016)",
  "key": {"[1]": {"tested_on": "M. tuberculosis H37Rv (ATCC 27294)", "format": "cell-based, Mycobacterium tuberculosis", "conditions": "one day (24 h) exposure to the Cmax of the drug (rifampicin 8 µg/ml, moxifloxacin 4 µg/ml, amikacin 8 µg/ml), compared with control without drug"}, "[2]": {"conditions": "species not given; cited from earlier work"}},
  "data": [
    {"smiles": "NCC[C@H](O)C(=O)N[C@@H]1C[C@H](N)[C@@H](O[C@H]2O[C@H](CN)[C@@H](O)[C@H](O)[C@H]2O)[C@H](O)[C@H]1O[C@H]1O[C@H](CO)[C@@H](O)[C@H](N)[C@H]1O", "note": "[amikacin]", "values": [
      {"measurement": "rate of CP^• formation", "setting": "[1]", "result": "quite high rate"},
      {"measurement": "Cmax value (maximum drug concentration in serum)", "setting": "[2]", "result": 8, "unit": "µg/mL"}
    ]},
    {"smiles": "COc1c(N2C[C@@H]3CCCN[C@@H]3C2)c(F)cc2c(=O)c(C(=O)O)cn(C3CC3)c12", "note": "[moxifloxacin]", "values": [
      {"measurement": "Cmax value (maximum drug concentration in serum)", "setting": "[2]", "result": 4, "unit": "µg/mL"}
    ]},
    {"smiles": "CO[C@H]1/C=C/O[C@@]2(C)Oc3c(C)c(O)c4c(O)c(c(/C=N/N5CCN(C)CC5)c(O)c4c3C2=O)NC(=O)/C(C)=C\\C=C\\[C@H](C)[C@H](O)[C@@H](C)[C@@H](O)[C@@H](C)[C@H](OC(C)=O)[C@@H]1C", "note": "[rifampicin]", "values": [
      {"measurement": "Cmax value (maximum drug concentration in serum)", "setting": "[2]", "result": 8, "unit": "µg/mL"}
    ]}
  ]
}
